Source: PubChem BioAssay AID2495 (Sanford-Burnham Center for Chemical Genomics, 2010)

Molecular target: Kappa-type opioid receptor (Homo sapiens) (UniProt P41145)
Assay: KOR antagonist analogs, beta-arrestin recruitment, SAR follow-up, cell-based, luminescence, set 2 (AID 2495)
Conditions: antagonist mode

Chain of Kappa-type opioid receptor (Homo sapiens) (P41145 whole entry, looked up): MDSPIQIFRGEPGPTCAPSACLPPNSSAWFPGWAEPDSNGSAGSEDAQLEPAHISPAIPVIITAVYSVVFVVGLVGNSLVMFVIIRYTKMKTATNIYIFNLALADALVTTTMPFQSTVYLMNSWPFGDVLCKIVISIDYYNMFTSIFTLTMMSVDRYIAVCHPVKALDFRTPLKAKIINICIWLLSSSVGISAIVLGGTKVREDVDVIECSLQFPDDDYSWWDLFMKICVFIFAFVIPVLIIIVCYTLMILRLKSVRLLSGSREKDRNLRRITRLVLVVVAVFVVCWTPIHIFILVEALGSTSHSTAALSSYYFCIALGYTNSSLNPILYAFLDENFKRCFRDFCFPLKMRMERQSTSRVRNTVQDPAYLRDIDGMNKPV

IC50: 1120 nM
Structure (SMILES): CCc1ccc(S(=O)(=O)NCc2ccc(C(=O)NCCN(Cc3ccccc3)C(C)C)cc2)cc1
